Earlier results, collected in US20240093147A1, “GLIA-LIKE CELLS DIFFERENATIATED FROM SOMATIC CELLS, PREPARATION METHOD THEREFOR, COCKTAIL COMPOSITION FOR PREPARING SAME, CELL THERAPEUTIC AGENT FOR PREVENTING OR TREATING NEUROLOGICAL DISORDERS, COMPRISING SAME, AND METHOD FOR PREVENTING AND TREATING NEUROLOGICAL DISORDERS BY ADMINISTERING SAME” (CELLAPEUTICS BIO, priority 2019, published 2024).

Legend:
[1] = forskolin, cAMP agonist
[2] = tested on: HDAC; conditions: valproic acid, HDAC inhibitor

Compound: C=C[C@@]1(C)CC(=O)[C@]2(O)[C@@]3(C)[C@@H](O)CCC(C)(C)[C@@H]3[C@H](O)[C@H](OC(C)=O)[C@@]2(C)O1 [Forskolin, forskolin]
- IC50 [1]: 0.5 µM

Compound: CCCC(CCC)C(=O)O [Valproic Acid, valproic acid]
- IC50 [2]: 2000 µM
